Assay results taken from ChEMBL document CHEMBL1201862, “PubChem BioAssay data set” (2004).
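Assay format: 96-well plates, 48-hour exposure. GI50 = concentration required for 50% inhibition of growth.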 Active and inactive are the calls of the source. No stated cut-off is given here; in the data, active = GI50 up to about 1.1 µM and inactive = higher. Starred links: 1 amine or outer side, 2 acyl side, 3 side chain; linkers in the order of their positions; H or OH if unused. Positions of bridges follow the written chain, without caps; N, C: chain ends. Non-standard residues stand in square brackets, D forms with d. Residues, ends and D or L forms follow the SMILES beside them. Chains are numbered I, II in the order given. ξ: configuration not given here. X42 = N=C(N)NCCC[C@H](NC(=N)CCCCCCC(=N)N[C@@H](CCCNC(=N)N)C(=O)[*:2])C(=O)[*:1]; Oic(3aξ,7aξ) = O=C(O)[C@@H]1CC2CCCCC2N1; Igl = N[C@H](C(=O)O)C1Cc2ccccc2C1; Hyp = O=C(O)[C@@H]1C[C@@H](O)CN1

How the values were obtained:
Assay in all cases: NCI anticancer screen, dose series, 48 h
HOP-62 = test system: HOP-62
HOP-92 = test system: HOP-92
IGROV-1 = test system: IGROV-1
KM12 = test system: KM12
MOLT-4 = test system: MOLT-4
NCI-H226 = test system: NCI-H226
NCI-H23 = test system: NCI-H23
OVCAR-4 = test system: OVCAR-4
PC-3 = test system: PC-3
RXF 393 = test system: RXF 393
SF-268 = test system: SF-268
SF-295 = test system: SF-295
SK-MEL-2 = test system: SK-MEL-2
SK-MEL-5 = test system: SK-MEL-5
SR = test system: SR
T47D = test system: T47D
TK-10 = test system: TK-10
UO-31 = test system: UO-31
CCRF-CEM = test system: CCRF-CEM
RPMI-8226 = test system: RPMI-8226

Row | SMILES | GI50 (HOP-62) | GI50 (HOP-92) | GI50 (IGROV-1) | GI50 (KM12) | GI50 (MOLT-4) | GI50 (NCI-H226) | GI50 (NCI-H23) | GI50 (OVCAR-4) | GI50 (PC-3) | GI50 (RXF 393) | GI50 (SF-268) | GI50 (SF-295) | GI50 (SK-MEL-2) | GI50 (SK-MEL-5) | GI50 (SR) | GI50 (T47D) | GI50 (TK-10) | GI50 (UO-31) | GI50 (CCRF-CEM) | GI50 (RPMI-8226)
1 | OC(c1cc2ccccc2[nH]1)C1(c2cccnc2)SCCCS1 (stereo unspecified) | 50.2 µM (inactive) | > 100 µM (inactive) | 53.8 µM (inactive) | 26.7 µM (inactive) | 27.9 µM (inactive) | > 100 µM (inactive) | 35.6 µM (inactive) | 48.8 µM (inactive) | 38.5 µM (inactive) | 31.8 µM (inactive) | 43.3 µM (inactive) | 68.5 µM (inactive) | 19.1 µM (inactive) | 43.6 µM (inactive) | 41.8 µM (inactive) | 69.7 µM (inactive) | > 100 µM (inactive) | 25.2 µM (inactive) | – | –
2 | Cn1c(CO)ccc1-c1ccc(-c2ccc[se]2)[se]1 | 20.7 µM (inactive) | – | 0.0384 µM (active) | 19.8 µM (inactive) | 19.6 µM (inactive) | 0.244 µM (active) | 20.5 µM (inactive) | 0.043 µM (active) | > 90.4 µM (inactive) | 3.07 µM (inactive) | 56.9 µM (inactive) | 34.6 µM (inactive) | 41.1 µM (inactive) | 29.8 µM (inactive) | 30.3 µM (inactive) | 0.155 µM (active) | < 0.01 µM (active) | > 87.1 µM (inactive) | 23.1 µM (inactive) | 20.9 µM (inactive)
3 | CCNC(=S)N/N=C(\C)c1cccc(C)n1 | 29.7 µM (inactive) | 13.5 µM (inactive) | 4.36 µM (inactive) | 20.3 µM (inactive) | 0.631 µM (active) | 11 µM (inactive) | 23 µM (inactive) | – | 5.87 µM (inactive) | 45.3 µM (inactive) | 2.4 µM (inactive) | 26.9 µM (inactive) | 42.8 µM (inactive) | 4.52 µM (inactive) | > 100 µM (inactive) | 0.643 µM (active) | > 100 µM (inactive) | 3.71 µM (inactive) | 0.351 µM (active) | –
4 | N=C(N)NCCC[C@H](NC(=O)[C@@H]1CC2CCCCC2N1C(=O)[C@@H](NC(=O)[C@H](CO)NC(=O)[C@@H](NC(=O)CNC(=O)[C@@H]1CCCN1C(=O)[C@H](CCCNC(=N)N)NC(=O)[C@H](CCCNC(=N)N)NC(=N)CCCCCCC(=N)N[C@@H](CCCNC(=N)N)C(=O)N[C@@H](CCCNC(=N)N)C(=O)N1CCC[C@H]1C(=O)N1C[C@H](O)C[C@H]1C(=O)NCC(=O)N[C@H](C(=O)N[C@@H](CO)C(=O)N[C@H](C(=O)N1C2CCCCC2C[C@H]1C(=O)N[C@@H](CCCNC(=N)N)C(=O)O)C1Cc2ccccc2C1)C1Cc2ccccc2C1)C1Cc2ccccc2C1)C1Cc2ccccc2C1)C(=O)O (stereo partly specified) (I: RP[Hyp]G[Igl]S[Igl][Oic(3aξ,7aξ)]R-OH / II: RPG[Igl]S[Igl][Oic(3aξ,7aξ)]R-OH; linker I:N-II:N via X42) | 2.23 µM (inactive) | 2.21 µM (inactive) | 2.44 µM (inactive) | 2.07 µM (inactive) | 0.413 µM (active) | – | 1.92 µM (inactive) | 2.73 µM (inactive) | 1.62 µM (inactive) | 1.34 µM (inactive) | 1.92 µM (inactive) | 1.86 µM (inactive) | 2.33 µM (inactive) | 1.73 µM (inactive) | 0.169 µM (active) | 2.19 µM (inactive) | 2.76 µM (inactive) | 5.43 µM (inactive) | 3.11 µM (inactive) | 2.31 µM (inactive)
5 | C=C(C)CCC(O)[C@](C)(O)[C@H]1[C@H](O)C[C@@]2(C)[C@@H]3CCc4c(cc(OC5OC(CO)C(O)C(O)C5O)c(O)c4C)C3(C)C(=O)C[C@]12C (stereo partly specified) | > 100 µM (inactive) | > 100 µM (inactive) | > 100 µM (inactive) | > 100 µM (inactive) | > 100 µM (inactive) | > 100 µM (inactive) | > 100 µM (inactive) | > 100 µM (inactive) | > 100 µM (inactive) | > 100 µM (inactive) | > 100 µM (inactive) | > 100 µM (inactive) | > 100 µM (inactive) | > 10 µM (inactive) | > 100 µM (inactive) | > 100 µM (inactive) | > 100 µM (inactive) | > 100 µM (inactive) | > 100 µM (inactive) | –
6 | COC(=O)[C@]12CCC(=O)N1[C@H](C(=O)O)Cc1c2[nH]c2ccccc12 | > 100 µM (inactive) | > 100 µM (inactive) | > 100 µM (inactive) | > 100 µM (inactive) | > 100 µM (inactive) | – | > 100 µM (inactive) | > 100 µM (inactive) | > 100 µM (inactive) | > 100 µM (inactive) | > 100 µM (inactive) | > 100 µM (inactive) | > 100 µM (inactive) | > 100 µM (inactive) | > 100 µM (inactive) | > 100 µM (inactive) | > 100 µM (inactive) | > 100 µM (inactive) | > 100 µM (inactive) | –
7 | Cc1ccc(C)c(COCCOCn2cc(Br)c(N)nc2=O)c1 | 57.3 µM (inactive) | > 100 µM (inactive) | > 100 µM (inactive) | > 100 µM (inactive) | > 100 µM (inactive) | > 100 µM (inactive) | > 100 µM (inactive) | – | > 100 µM (inactive) | > 100 µM (inactive) | > 100 µM (inactive) | > 100 µM (inactive) | > 100 µM (inactive) | – | > 100 µM (inactive) | > 100 µM (inactive) | > 100 µM (inactive) | > 100 µM (inactive) | > 100 µM (inactive) | –
8 | COc1cc(/C=C2\CCC(C)C3C2=NN(C(C)=O)C3c2cc(OC)c(OC)c(OC)c2)cc(OC)c1OC (stereo unspecified) | > 59.2 µM (inactive) | > 100 µM (inactive) | 3.13 µM (inactive) | > 33 µM (inactive) | > 100 µM (inactive) | > 100 µM (inactive) | > 100 µM (inactive) | > 100 µM (inactive) | > 100 µM (inactive) | 43.5 µM (inactive) | > 85.1 µM (inactive) | > 100 µM (inactive) | – | > 57 µM (inactive) | > 52.6 µM (inactive) | 9.86 µM (inactive) | > 81.1 µM (inactive) | – | > 100 µM (inactive) | 36.7 µM (inactive)
9 | c1ccc2sc(SCCSc3nc4ccccc4s3)nc2c1 | > 100 µM (inactive) | > 100 µM (inactive) | > 100 µM (inactive) | 52.4 µM (inactive) | – | – | > 100 µM (inactive) | 52.1 µM (inactive) | > 100 µM (inactive) | > 100 µM (inactive) | > 100 µM (inactive) | > 100 µM (inactive) | > 100 µM (inactive) | – | > 100 µM (inactive) | > 100 µM (inactive) | > 100 µM (inactive) | > 100 µM (inactive) | – | > 100 µM (inactive)
10 | O=C(Nc1ccc(Cl)c(Cl)c1)C(=O)C(C1OC(=O)c2ccccc21)[N+](=O)[O-] (stereo unspecified) | > 100 µM (inactive) | 81.7 µM (inactive) | > 100 µM (inactive) | > 100 µM (inactive) | > 100 µM (inactive) | > 100 µM (inactive) | > 100 µM (inactive) | > 100 µM (inactive) | > 100 µM (inactive) | 95.1 µM (inactive) | > 100 µM (inactive) | > 100 µM (inactive) | > 100 µM (inactive) | > 100 µM (inactive) | > 100 µM (inactive) | > 100 µM (inactive) | > 100 µM (inactive) | > 100 µM (inactive) | > 100 µM (inactive) | –
